Patent publication US9630977B2, “Cephalosporin derivatives and pharmaceutical compositions thereof” (Legochem Biosciences, Inc., priority 2011, dated 2017)
In brackets after ≈: the same amount, converted by molar mass. Read-outs that look alike come from different tables or passages of the source.

How the values were obtained:
Experiment in all cases: In vitro antibacterial activity test (broth microdilution)
Format in all cases: cell-based
E. coli AG100 = system: E. coli AG100
Method: (§1) To evaluate antibacterial activity of each of the compounds of Examples 1 to 68, in vitro antibacterial activity test was performed.
(§2) The in vitro antibacterial activity was evaluated by measuring MIC90 (ug/mL) of each of the compounds of Examples 1 to 68, which is defined as the lowest concentration of an antibiotic that will inhibit the visible growth of 90% of microorganisms after incubation as compared with a control group to which the antibiotic is not treated. MIC90 values were measured by the broth microdilution method developed by the Clinical and Laboratory Standards Institute (CLSI) (see CLSI M7-A5, Methods for Dilution Antimicrobial Susceptibility Test for Bacteria that Grow Aerobically-Fifth Edition (2000): CLSI, Villanova, Pa.).
(§3) In vitro antibacterial activity was measured with respect to the following 19 clinical isolates: M. catarrhalis; P. aeruginosa (5 strains); K. pneumoniae (6 strains); A. baumannii (3 strains); E. coli (2 strains); A. calcoaceticus; and E. cloacae.
(§4) Test compounds each (the cephalosporin derivative compounds prepared in Examples 1 to 68) were dissolved in DMSO at the concentration of 10,240 ug/mL, were diluted by two fold with DMSO, and then were diluted by twenty fold with sterilized distilled water. The final concentration in the antibacterial activity test was in the range of […] to 128 ug/mL, and the final concentration of DMSO used as an adjuvant was 2.5% (V/V).

A. baumannii 52 = settings: A. baumannii 52
Method: as §1, §2, §3, §4

[1] = system: A. calcoaceticus ATCC15473; settings: A. calcoaceticus ATCC15473
Method: as §1, §2, §3, §4

E. coli β4 = system: E. coli β4
Method: as §1, §2, §3, §4

P. aeruginosa 6065Y = system: P. aeruginosa 6065Y
Method: as §1, §2, §3, §4

M. catarrhalis 2524 = settings: M. catarrhalis 2524
Method: as §1, §2, §3, §4

A. baumannii 46 = settings: A. baumannii 46
Method: as §1, §2, §3, §4

P. aeruginosa 37 = system: P. aeruginosa 37
Method: as §1, §2, §3, §4

P. aeruginosa 40 = system: P. aeruginosa 40
Method: as §1, §2, §3, §4

E. cloacae β19 = system: E. cloacae β19
Method: as §1, §2, §3, §4

K. pneumoniae β14 = system: K. pneumoniae β14
Method: as §1, §2, §3, §4

A. baumannii 49 = settings: A. baumannii 49
Method: as §1, §2, §3, §4

P. aeruginosa 43 = settings: P. aeruginosa 43
Method: as §1, §2, §3, §4

K. pneumoniae 2011E = settings: K. pneumoniae 2011E
Method: as §1, §2, §3, §4

P. aeruginosa 1912E = system: P. aeruginosa 1912E
Method: as §1, §2, §3, §4

[2] = Escherichia coli, AG100, E. coli AG100, read-out: MIC90
[3] = Acinetobacter baumannii, read-out: MIC90
[4] = Acinetobacter calcoaceticus, read-out: MIC90
[5] = Escherichia coli, read-out: MIC90
[6] = Pseudomonas aeruginosa, read-out: MIC90
[7] = Moraxella catarrhalis, read-out: MIC90
[8] = Pseudomonas aeruginosa, 37, P. aeruginosa 37, read-out: MIC90
[9] = Pseudomonas aeruginosa, 40, P. aeruginosa 40, read-out: MIC90
[10] = Enterobacter cloacae, read-out: MIC90
[11] = Klebsiella pneumoniae, read-out: MIC90
[12] = Klebsiella pneumoniae, 2011E, read-out: MIC90
[13] = Pseudomonas aeruginosa, 1912E, read-out: MIC90

Row | MIC90 (E. coli AG100; [2]) | MIC90 (A. baumannii 52; [3]) | MIC90 [1, 4] | MIC90 (E. coli β4; [5]) | MIC90 (P. aeruginosa 6065Y; [6]) | MIC90 (M. catarrhalis 2524; [7]) | MIC90 (A. baumannii 46; [3]) | MIC90 (P. aeruginosa 37; [8]) | MIC90 (P. aeruginosa 40; [9]) | MIC90 (E. cloacae β19; [10]) | MIC90 (K. pneumoniae β14; [11]) | MIC90 (A. baumannii 49; [3]) | MIC90 (P. aeruginosa 43; [6]) | MIC90 (K. pneumoniae 2011E; [12]) | MIC90 (P. aeruginosa 1912E; [13]) | Compound | further results
1 | < 0.0625 µg/mL | 2 µg/mL (≈ 2.57 µM) | 0.5 µg/mL (≈ 0.643 µM) | 1 µg/mL (≈ 1.29 µM) | 2 µg/mL (≈ 2.57 µM) | < 0.0625 µg/mL | 4 µg/mL (≈ 5.15 µM) | 0.25 µg/mL (≈ 0.322 µM) | 1 µg/mL (≈ 1.29 µM) | 0.5 µg/mL (≈ 0.643 µM) | 16 µg/mL (≈ 20.6 µM) | 4 µg/mL (≈ 5.15 µM) | 1 µg/mL (≈ 1.29 µM) | 2 µg/mL (≈ 2.57 µM) | 2 µg/mL (≈ 2.57 µM) | C[C@H](O/N=C(\C(=O)N[C@@H]1C(=O)N2C(C(=O)[O-])=C(C[n+]3cnc(N)c(NCCNC(=O)c4ccc(O)c(O)c4)c3)CSC12)c1nc(N)sc1Cl)C(=O)O (stereo partly drawn) [Compound 35] | –
2 | – | – | – | – | – | – | – | – | – | – | – | – | – | – | – | CC(C)(ON=C(C(=O)NC1C(=O)N2C(C(=O)[O-])=C(C[n+]3cnc(N)c(NCC=CC(=O)NO)c3)CSC12)c1csc(N)n1)C(=O)O (stereo not drawn) [Compound 47] | MIC90 (E. coli AG100; E. coli AG100): >128 µg/mL; MIC90 (A. baumannii 52): 128 µg/mL (≈ 189 µM); MIC90 [1]: 8 µg/mL (≈ 11.8 µM); MIC90 (E. coli β4): 16 µg/mL (≈ 23.6 µM); MIC90 (P. aeruginosa 6065Y): 128 µg/mL (≈ 189 µM); MIC90 (M. catarrhalis 2524): 0.25 µg/mL (≈ 0.369 µM); MIC90 (A. baumannii 46): 16 µg/mL (≈ 23.6 µM); MIC90 (P. aeruginosa 37; P. aeruginosa 37): 64 µg/mL (≈ 94.6 µM); MIC90 (P. aeruginosa 40; P. aeruginosa 40): 32 µg/mL (≈ 47.3 µM); MIC90 (E. cloacae β19): 128 µg/mL (≈ 189 µM); MIC90 (K. pneumoniae β14): 32 µg/mL (≈ 47.3 µM); MIC90 (A. baumannii 49): >128 µg/mL; MIC90 (P. aeruginosa 43): 128 µg/mL (≈ 189 µM); MIC90 (K. pneumoniae 2011E): 4 µg/mL (≈ 5.91 µM); MIC90 (P. aeruginosa 1912E): 8 µg/mL (≈ 11.8 µM)
3 | < 0.0625 µg/mL | 128 µg/mL (≈ 168 µM) | 0.25 µg/mL (≈ 0.329 µM) | 1 µg/mL (≈ 1.32 µM) | 0.5 µg/mL (≈ 0.658 µM) | 2 µg/mL (≈ 2.63 µM) | 2 µg/mL (≈ 2.63 µM) | 1 µg/mL (≈ 1.32 µM) | 0.125 µg/mL (≈ 0.165 µM) | 2 µg/mL (≈ 2.63 µM) | 64 µg/mL (≈ 84.2 µM) | > 128 µg/mL | 0.25 µg/mL (≈ 0.329 µM) | 1 µg/mL (≈ 1.32 µM) | 32 µg/mL (≈ 42.1 µM) | C[C@H](O/N=C(\C(=O)N[C@@H]1C(=O)N2C(C(=O)[O-])=C(C[n+]3cnc(N)c(NCCNC(=O)c4cc(=O)c(O)cn4O)c3)CSC12)c1csc(N)n1)C(=O)O (stereo partly drawn) [Compound 3] | –
4 | < 0.0625 µg/mL | 128 µg/mL (≈ 172 µM) | 0.5 µg/mL (≈ 0.673 µM) | 1 µg/mL (≈ 1.35 µM) | 1 µg/mL (≈ 1.35 µM) | 1 µg/mL (≈ 1.35 µM) | 2 µg/mL (≈ 2.69 µM) | 2 µg/mL (≈ 2.69 µM) | 0.5 µg/mL (≈ 0.673 µM) | 16 µg/mL (≈ 21.5 µM) | 128 µg/mL (≈ 172 µM) | 128 µg/mL (≈ 172 µM) | 0.5 µg/mL (≈ 0.673 µM) | 0.25 µg/mL (≈ 0.337 µM) | 32 µg/mL (≈ 43.1 µM) | C[C@H](O/N=C(\C(=O)N[C@@H]1C(=O)N2C(C(=O)[O-])=C(C[n+]3cnc(N)c(NCCNC(=O)c4ccc(O)c(O)c4)c3)CSC12)c1csc(N)n1)C(=O)O (stereo partly drawn) [Compound 34] | –
5 | 0.25 µg/mL (≈ 0.324 µM) | 64 µg/mL (≈ 83 µM) | 1 µg/mL (≈ 1.3 µM) | 8 µg/mL (≈ 10.4 µM) | 4 µg/mL (≈ 5.19 µM) | 1 µg/mL (≈ 1.3 µM) | 4 µg/mL (≈ 5.19 µM) | 1 µg/mL (≈ 1.3 µM) | 2 µg/mL (≈ 2.59 µM) | 16 µg/mL (≈ 20.8 µM) | 32 µg/mL (≈ 41.5 µM) | 32 µg/mL (≈ 41.5 µM) | 1 µg/mL (≈ 1.3 µM) | 8 µg/mL (≈ 10.4 µM) | 1 µg/mL (≈ 1.3 µM) | CC(C)(O/N=C(\C(=O)N[C@@H]1C(=O)N2C(C(=O)[O-])=C(C[n+]3cnc(N)c(NCCCNC(=O)c4ccc(O)c(O)c4)c3)CSC12)c1csc(N)n1)C(=O)O (stereo partly drawn) [Compound 31] | –
6 | 16 µg/mL (≈ 20.4 µM) | > 128 µg/mL | 128 µg/mL (≈ 163 µM) | 64 µg/mL (≈ 81.6 µM) | 128 µg/mL (≈ 163 µM) | 2 µg/mL (≈ 2.55 µM) | 128 µg/mL (≈ 163 µM) | > 128 µg/mL | 128 µg/mL (≈ 163 µM) | > 128 µg/mL | 128 µg/mL (≈ 163 µM) | > 128 µg/mL | > 128 µg/mL | 16 µg/mL (≈ 20.4 µM) | 64 µg/mL (≈ 81.6 µM) | CC(C)(O/N=C(\C(=O)N[C@@H]1C(=O)N2C(C(=O)[O-])=C(C[n+]3cnc(N)c(NCCNC(=O)c4ccc(O)c(C(=O)O)c4)c3)CSC12)c1csc(N)n1)C(=O)O (stereo partly drawn) [Compound 33] | –
